Read-outs that look alike come from different tables or passages of the source.
Key:
[1] = test system: normal dogs and dogs with advanced dilated cardiomyopathy; experiment: Acute graded infusion, hemodynamic effects in conscious chronically instrumented dogs; assay type: in vivo, dog; settings: for effects on left ventricular pressure, left ventricular dP/dt, cardiac output, heart rate: graded infusions for ten minutes, six normal dogs and six dogs with advanced DCM
Description: FIGS. 2a–2d show the dose response to rGLP-1 in normal conscious dogs and conscious dogs with advanced DCM compared to the response to the sympathomimetic, dobutamine.
FIG. 1 illustrates characteristic instrumentation of conscious, chronically instrumented dogs studied in the laboratory. Under sterile surgical technique, the animals are instrumented as indicated and allowed to recover fully from their surgery. At the time, they are taught to lie quietly on the experimental table before study. To determine if acute GLP-1 (7–36 amide) infusion is associated with hemodynamic effects in conscious chronically instrumented dogs, graded infusions for ten minutes at doses of 1.25, 2.5, 5, 10 and 20 pmol/kg/min in six normal dogs and in six dogs with advanced dilated cardiomyopathy were studied. The response of the graded infusion to the classic iontopic agent, Dobutamine, (2.5, 5, 7.5, 10 and 15 μ/kg/min.) was compared. […] Nikolaidis, L A, Hentosz, T, Doverspike, A, et al., “Catecholamine stimulation is associated with impaired myocardial O2 utilization in heart failure,” Cardiovas. Res., 2002;53:392–404, incorporated by reference herein.

[2] = test system: normal dogs; experiment: 48 hour continuous intravenous infusion, hemodynamic effect in normal dogs; assay type: in vivo, dog; settings: 1.5 pmol/kg/min i.v. 48 hours; five normal dogs
Procedure: (§1) A 48 hour continuous intravenous infusion of GLP-1 (7–36 amide), (1.5 pmol/kg/min) in five normal dogs to determine the hemodynamic effect of chronic infusion in the absence of dilated cardiomyopathy was conducted. […] FIGS. 3–5 illustrates the effects of GLP-1 (7–36 amide) infusion (1.5 pmol/kg/min) intravenously for 48 hours in 20 conscious, chronically instrumented animals with advanced heart failure. These effects have been compared to similarly instrumented animals with advanced heart failure that received a control saline infusion of equal volume ([…]) illustrate the hemodynamic effects of chronic GLP-1 infusion in advanced DCM. GLP-1 (7–36 amide) infusion was associated with a restoration of left ventricular pressure, improvement in contractility, improvement in cardiac output, and reduction in heart rate and LVEDP. […] GLP-1 was associated with restoration of endothelial dependent vaso dilatation response to acetylcholine (FIG. 7). […] GLP-1 had little effect on increased plasma insulin levels in the setting of euglycemia.

[3] = test system: conscious dogs with advanced DCM; experiment: 48 hour intravenous infusion, hemodynamics and myocardial sympathetic activity in conscious dogs with advanced heart failure (DCM); assay type: in vivo, dog
Description: FIGS. 3a–3d show the effects of r GLP-1 on LV systolic pressure, LV end diastolic pressure, LV dP/dt, and heart rate in conscious dogs with advanced DCM compared to saline control.
FIGS. 4a–4d show the effects of rGLP-1 on cardiac output, stroke volume, LV ejection fraction, systemic vascular resistance in conscious dogs with advanced DCM compared to saline control.
FIGS. 5a and 5b show the effects of rGLP-1 on stroke work and LV external efficiency in conscious dogs with advanced DCM compared to saline control.
FIGS. 6a and 6b show the effects of rGLP-1 on transmyocardial norepinephrine uptake as a reflection of sympathetic drive to the myocardium in conscious dogs with advanced DCM compared to saline controls.
as §1

[4] = test system: myocardial substrate uptake; experiment: Myocardial substrate uptake and metabolic parameters in dogs with advanced DCM, 48 h infusion (Table 1); assay type: in vivo, dog; settings: for Glucose myocardial uptake / Lactate myocardial uptake / NE (transmyocardial norepinephrine uptake) / NEFA myocardial uptake: GLP-1 group (n = 9); for Insulin/Glucagon: ratio insulin (pmol/L) to glucagon (pg/ml), GLP-1 group
Procedure: as §1

[5] = test system: endothelial dependent coronary vasodilation; experiment: Coronary flow responses to acetylcholine and nitroglycerin in conscious dogs with advanced DCM after 48-hour infusion; assay type: in vivo, dog
Procedure: FIGS. 7a and 7b show the effects of rGLP-1 on endothelial dependent coronary vasodilation in conscious dogs. Advanced DCM was associated with impaired coronary flow responses to acetylcholine. These responses were restored following 48-hour infusion of rGLP-1. The response to the non-endothelial dependent vasodilator, nitroglycerin was unaffected.
as §1

[6] = test system: patients with large myocardial infarction (LVEF<35%); experiment: 72 hour continuous intravenous infusion in adults with severe acute myocardial infarction, LV function; assay type: in vivo, human; settings: 1.5 pmol/kg/min i.v. 72 hours after percutaneous coronary intervention; ten adults vs eleven on standard care
Procedure: The effects of continuous intravenous infusion of GLP-1 (1.5 pmol/kg/min) intravenously for 72 hours was studied in ten adults presenting with severe acute myocardial infarction. These were compared to eleven adults with similar large myocardial infarction (LVEF<35%) all of whom underwent percutaneous coronary intervention and subsequently were treated for 72 hours thereafter.

[7] = test system: plasma insulin; settings: cited from earlier work; for plasma insulin levels: GIP 2.0, GLP-1 1.5 pmol·kg−1·min−1
[8] = test system: restrained rats; settings: rat, in vivo, sc; cited from earlier work
[9] = 1.5 pmol/kg/min i.v. 48 hours, vs saline
[10] = Baseline (before CHF and infusion)
[11] = advanced DCM, vs saline controls
[12] = hyperglycemia 10.4 mmol/l, hyperglycemia alone ~280 pmol/l
[13] = hyperglycemia 187 mg/dl, hyperglycemia alone 47 μU/ml

With `CC(CCc1ccc(O)cc1)NCCc1ccc(O)c(O)c1` (centres unmarked) [Dobutamine] the “hemodynamic effects of graded infusion, heart failure” value ([1]; dogs with heart failure (advanced DCM), graded infusion) was “de-sensitized effects” and the “hemodynamic effects of graded infusion, normal dogs” value ([1]; normal dogs, graded infusion) was “predictable effects”.

For GLP-1 (7–36 amide), the “effects on left ventricular pressure, left ventricular dP/dt, cardiac output, heart rate” value [1] was “no significant, dose related effects”, the “effects on left ventricular pressure, left ventricular dP/dt, cardiac output, heart rate” value ([1]; listed as rGLP-1) was “no acute hemodynamic effects” and the “hemodynamic effects of chronic infusion” value [2] was “no significant hemodynamic effects”. For the same compound, the LVEDP [3, 9] was “reduction”, the cardiac output [3, 9] was “improvement” and the contractility [3, 9] was “improvement”. For the same compound, the heart rate [3, 9] was “reduction”, the left ventricular pressure [3, 9] was “restoration” and the myocardial sympathetic activity ([3]; infusion compared to saline) was “suppression”. For the same compound, the Glucose myocardial uptake ([4]; 24 hrs of infusion) was 8.72 ± 1.05 µmol/min, the Lactate myocardial uptake ([4]; 24 hrs of infusion) was 3.61 ± 0.62 µmol/min and the “NE (transmyocardial norepinephrine uptake)” value ([4]; 24 hrs of infusion) was 26.3 ± 3.1 pmol/min. For the same compound, the NEFA myocardial uptake ([4]; 24 hrs of infusion) was 4.53 ± 0.58 µmol/min, the Glucose myocardial uptake ([4]; 48 hrs of infusion) was 7.00 ± 0.94 µmol/min and the Lactate myocardial uptake ([4]; 48 hrs of infusion) was 4.04 ± 0.74 µmol/min. For the same compound, the “NE (transmyocardial norepinephrine uptake)” value ([4]; 48 hrs of infusion) was 30.5 ± 4.9 pmol/min, the NEFA myocardial uptake ([4]; 48 hrs of infusion) was 5.16 ± 0.73 µmol/min and the Glucose myocardial uptake [4, 10] was 6.67 ± 1.22 µmol/min. For the same compound, the Lactate myocardial uptake [4, 10] was 4.78 ± 1.04 µmol/min, the “NE (transmyocardial norepinephrine uptake)” value [4, 10] was 30.9 ± 4.8 pmol/min and the NEFA myocardial uptake [4, 10] was 5.23 ± 0.83 µmol/min. For the same compound, the Glucose myocardial uptake ([4]; CHF (before infusion)) was 3.44 ± 0.81 µmol/min, the Lactate myocardial uptake ([4]; CHF (before infusion)) was 2.64 ± 0.91 µmol/min and the “NE (transmyocardial norepinephrine uptake)” value ([4]; CHF (before infusion)) was 18.7 ± 3.6 pmol/min. For the same compound, the NEFA myocardial uptake ([4]; CHF (before infusion)) was 3.17 ± 0.61 µmol/min, the “myocardial glucose uptake” value [4, 11] was “enhanced” and the “ratio of insulin (pmol/L) to glucagon (pg/ml)” value [4, 11] was “significant increase”. For the same compound, the Insulin/Glucagon ([4]; 48 hrs of infusion) was 3.12 ± 0.24, the Insulin/Glucagon [4, 10] was 1.36 ± 0.21 and the Insulin/Glucagon ([4]; CHF (before infusion)) was 1.79 ± 0.29. The plasma insulin levels ([4]; setting of euglycemia, advanced DCM) was “little effect”, the “endothelial dependent vasodilatation (coronary flow) response to acetylcholine” value [5] was “restoration” and the “response to the non-endothelial dependent vasodilator nitroglycerin” value [5] was “unaffected”. The “endothelial dependent vasodilatation (coronary flow) response to acetylcholine” value ([5]; listed as rGLP-1) was “restored”, the left ventricular function [6] was “improvement” and the plasma insulin levels [7, 12] was ~2000 pmol/L. The plasma insulin levels [7, 13] was 333 μU/ml and the “relative potency as incretin” value ([7]; hyperglycemia, infusion) was “more potent than GIP”.

For exendin-4 [excendin 4], the “blood pressure and heart rate” value [8] is given as “hypertension and tachycardia”.

In the case of “glucose-dependent insulinotropic polypeptide [GIP]”, the plasma insulin levels [7, 12] is given as ~900 pmol/L, the plasma insulin levels [7, 13] is given as 150 μU/ml and the “insulinotropic action during euglycemia” value ([7]; normal subjects, euglycemia) is given as “not”.

— patent US7192922B2, “Method of treating left ventricular dysfunction” (Allegheny-Singer Research Institute, priority 2002, dated 2007)
